Results published in patent US11427548B2 (Arvinas Operations, Inc., priority 2015, dated 2022).
Like-named read-outs stand apart in the source and are kept apart here.

Molecular target: T1, Androgen Receptor (Homo sapiens, UniProt P10275)
T1 construct: endogenous in cells; host or cells: VCaP cells
T1 sequence (P10275 1-920): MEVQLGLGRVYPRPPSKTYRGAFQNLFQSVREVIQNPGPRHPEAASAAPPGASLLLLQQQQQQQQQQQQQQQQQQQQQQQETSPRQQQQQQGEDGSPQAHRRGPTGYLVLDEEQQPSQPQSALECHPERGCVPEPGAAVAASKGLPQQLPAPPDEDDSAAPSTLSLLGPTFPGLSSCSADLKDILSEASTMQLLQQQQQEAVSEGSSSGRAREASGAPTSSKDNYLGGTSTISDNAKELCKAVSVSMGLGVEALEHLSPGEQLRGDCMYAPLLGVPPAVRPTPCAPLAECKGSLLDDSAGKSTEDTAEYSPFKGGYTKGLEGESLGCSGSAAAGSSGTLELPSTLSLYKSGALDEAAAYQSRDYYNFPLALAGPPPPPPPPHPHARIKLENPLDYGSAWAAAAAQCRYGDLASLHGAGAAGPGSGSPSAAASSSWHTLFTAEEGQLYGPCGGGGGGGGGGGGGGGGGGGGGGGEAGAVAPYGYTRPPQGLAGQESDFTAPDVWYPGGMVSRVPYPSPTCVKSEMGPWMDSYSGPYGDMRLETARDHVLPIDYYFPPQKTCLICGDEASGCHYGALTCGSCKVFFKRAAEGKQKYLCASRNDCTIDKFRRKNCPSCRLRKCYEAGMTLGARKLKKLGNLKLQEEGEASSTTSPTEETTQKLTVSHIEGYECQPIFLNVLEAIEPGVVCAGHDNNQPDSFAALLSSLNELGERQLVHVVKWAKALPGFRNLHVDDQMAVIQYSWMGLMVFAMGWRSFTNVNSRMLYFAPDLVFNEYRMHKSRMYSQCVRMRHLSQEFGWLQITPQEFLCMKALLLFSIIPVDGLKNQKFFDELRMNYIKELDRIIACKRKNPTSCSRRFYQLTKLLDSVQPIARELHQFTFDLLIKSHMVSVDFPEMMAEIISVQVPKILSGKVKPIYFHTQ
Experiment: Androgen Receptor ELISA assay (PathScan AR ELISA) in VCaP cells: AR degradation, Dmax and DC50
Type: cell-based
Settings: for Dmax: VCaP, read-out: VCaP Dmax (%); for DC50: read-out: VCaP DC50, concentration that caused 50% Androgen Receptor degradation
In short: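 After 24 h exposure of VCaP cells (charcoal-stripped serum, 0.1 nM R1881 agonist, 0.1% DMSO) to seven half-log compound concentrations, residual AR in lysates was measured by PathScan ELISA (TMB absorbance, 450 nm). Cells were plated at 30,000/well and grown at least 3 days beforehand.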

**Q.** `Cc1ncsc1-c1ccc(CNC(=O)[C@@H]2C[C@@H](O)CN2C(=O)[C@@H](NC(=O)COCCCCOCCCOc2ccc(N3C(=S)N(c4ccc(C#N)c(C(F)(F)F)c4)C(=O)C3(C)C)cc2F)C(C)(C)C)cc1` [Example 53, (2S,4R)-1-[(2S)-2-(2-{4-[3-(4-{3-[4-cyano-3-(trifluoromethyl)phenyl]-5,5-dimethyl-4-oxo-2-sulfanylideneimidazolidin-1-yl}-2-fluorophenoxy)propoxy]butoxy}acetamido)-3,3-dimethylbutanoyl]-4-hydroxy-N-{[4-(4-methyl-1,3-thiazol-5-yl)phenyl]methyl}pyrrolidine-2-carboxamide] was tested. Which Dmax did it give?
**A.** Its Dmax is over 71%.

**Q.** What about the DC50 (VCaP cells) of the same compound?
**A.** The DC50 was 51 to 500 nM.

**Q.** Which results are given for `CC(C)(C)[C@H](NC(=O)COCC#CC#CCOc1ccc(N2C(=S)N(c3ccc(C#N)c(Cl)c3)C(=O)C2(C)C)cc1F)C(=O)N1C[C@H](O)C[C@H]1C(=O)NCc1ccc(-c2cnco2)cc1` [Example 60, (2S,4R)-1-[(2S)-2-{2-[(6-{4-[3-(3-chloro-4-cyanophenyl)-5,5-dimethyl-4-oxo-2-sulfanylideneimidazolidin-1-yl]-2-fluorophenoxy}hexa-2,4-diyn-1-yl)oxy]acetamido}-3,3-dimethylbutanoyl]-4-hydroxy-N-{[4-(1,3-oxazol-5-yl)phenyl]methyl}pyrrolidine-2-carboxamide]?
**A.** Dmax: 51 to 70%; DC50 (VCaP cells): 51 to 500 nM

**Q.** With `CC(C)(C)[C@H](NC(=O)COCC#CC#CCOc1ccc(N2C(=S)N(c3ccc(C#N)c(C(F)(F)F)c3)C(=O)C2(C)C)cc1F)C(=O)N1C[C@H](O)C[C@H]1C(=O)NCc1ccc(-c2cnco2)cc1` [Example 61, (2S,4R)-1-[(2S)-2-(2-{[6-(4-{3-[4-cyano-3-(trifluoromethyl)phenyl]-5,5-dimethyl-4-oxo-2-sulfanylideneimidazolidin-1-yl}-2-fluorophenoxy)hexa-2,4-diyn-1-yl]oxy}acetamido)-3,3-dimethylbutanoyl]-4-hydroxy-N-{[4-(1,3-oxazol-5-yl)phenyl]methyl}pyrrolidine-2-carboxamide] as the compound, how does the Dmax read?
**A.** The Dmax was 51 to 70%.

**Q.** And the DC50 (VCaP cells)?
**A.** The DC50 was 51 to 500 nM.

**Q.** For `Cc1ncsc1-c1ccc(CNC(=O)[C@@H]2C[C@@H](O)CN2C(=O)[C@@H](NC(=O)CCOCCOc2ccc(-c3ccc(N4C(=S)N(c5ccc(C#N)c(C(F)(F)F)c5)C(=O)C4(C)C)cc3)cn2)C(C)(C)C)cc1` [Example 86], which Dmax is on record?
**A.** Its Dmax is 26 to 50%.

**Q.** And the DC50 (VCaP cells (Table 32))?
**A.** Its DC50 is under 50 nM.

**Q.** Which Dmax does the source give for `Cc1ncsc1-c1ccc(CNC(=O)[C@@H]2C[C@@H](O)CN2C(=O)[C@@H](NC(=O)CCOCCOc2ccc(-c3ccc(N4C(=S)N(c5ccc(C#N)c(C(F)(F)F)c5)C(=O)C4(C)C)cc3)nc2)C(C)(C)C)cc1` [Example 87] here?
**A.** Its Dmax is 26 to 50%.

**Q.** And the DC50 (VCaP cells (Table 32))?
**A.** The DC50 was under 50 nM.

**Q.** What does the source list for `CC(C)(C)[C@H](NC(=O)COCCCCOc1ccc(-c2ccc(N3C(=S)N(c4ccc(C#N)c(Cl)c4)C(=O)C3(C)C)cc2)nc1)C(=O)N1C[C@H](O)C[C@H]1C(=O)NCc1ccc(-c2cnco2)cc1` [Example 89]?
**A.** Dmax: > 71%; DC50 (VCaP cells (Table 32)): < 50 nM

**Q.** For `CC(C)(C)[C@H](NC(=O)COCCCCOc1ccc(-c2ccc(N3C(=S)N(c4ccc(C#N)c(Cl)c4)C(=O)C3(C)C)cc2)cc1)C(=O)N1C[C@H](O)C[C@H]1C(=O)NCc1ccc(-c2cnco2)cc1` [Example 94, (2S,4R)-1-[(2S)-2-{2-[4-(4-{4-[3-(3-chloro-4-cyanophenyl)-5,5-dimethyl-4-oxo-2-sulfanylideneimidazolidin-1-yl]phenyl}phenoxy)butoxy]acetamido}-3,3-dimethylbutanoyl]-4-hydroxy-N-{[4-(1,3-oxazol-5-yl)phenyl]methyl}pyrrolidine-2-carboxamide], which Dmax is on record?
**A.** The Dmax was over 71%.

**Q.** What about the DC50 (VCaP cells (Table 32)) of the same compound?
**A.** The DC50 was under 50 nM.

**Q.** How did the Dmax turn out when `Cc1ncsc1-c1ccc([C@H](C)NC(=O)[C@@H]2C[C@@H](O)CN2C(=O)[C@@H](NC(=O)COCCCCOc2ccc(-c3ccc(N4C(=S)N(c5ccc(C#N)c(C(F)(F)F)c5)C(=O)C4(C)C)cc3)cc2)C(C)(C)C)cc1` [Example 95, (2S,4R)-1-[(2S)-2-(2-{4-[4-(4-{3-[4-cyano-3-(trifluoromethyl)phenyl]-5,5-dimethyl-4-oxo-2-sulfanylideneimidazolidin-1-yl}phenyl)phenoxy]butoxy}acetamido)-3,3-dimethylbutanoyl]-4-hydroxy-N-[(1S)-1-[4-(4-methyl-1,3-thiazol-5-yl)phenyl]ethyl]pyrrolidine-2-carboxamide] was run?
**A.** The Dmax was over 71%.

**Q.** What about the DC50 (VCaP cells (Table 32)) of the same compound?
**A.** Its DC50 is under 50 nM.

**Q.** `CC(C)(C)[C@H](NC(=O)COCCCCOc1ccc(-c2ccc(N3C(=S)N(c4ccc(C#N)c(C(F)(F)F)c4)C(=O)C3(C)C)cc2)cc1)C(=O)N1C[C@H](O)C[C@H]1C(=O)NCc1ccc(-c2cnco2)cc1` [Example 96, (2S,4R)-1-[(2S)-2-(2-{4-[4-(4-{3-[4-cyano-3-(trifluoromethyl)phenyl]-5,5-dimethyl-4-oxo-2-sulfanylideneimidazolidin-1-yl}phenyl)phenoxy]butoxy}acetamido)-3,3-dimethylbutanoyl]-4-hydroxy-N-{[4-(1,3-oxazol-5-yl)phenyl]methyl}pyrrolidine-2-carboxamide] was tested. Which Dmax did it give?
**A.** The Dmax was 51 to 70%.

**Q.** What about the DC50 (VCaP cells (Table 32)) of the same compound?
**A.** Its DC50 is under 50 nM.

**Q.** Which results are given for `Cc1ncsc1-c1ccc(CNC(=O)[C@@H]2C[C@@H](O)CN2C(=O)[C@@H](NC(=O)COCCCCOc2cccc(-c3ccc(N4C(=S)N(c5ccc(C#N)c(C(F)(F)F)c5)C(=O)C4(C)C)cc3)c2)C(C)(C)C)cc1` [Example 99, (2S,4R)-1-[(2S)-2-(2-{4-[3-(4-{3-[4-cyano-3-(trifluoromethyl)phenyl]-5,5-dimethyl-4-oxo-2-sulfanylideneimidazolidin-1-yl}phenyl)phenoxy]butoxy}acetamido)-3,3-dimethylbutanoyl]-4-hydroxy-N-{[4-(4-methyl-1,3-thiazol-5-yl)phenyl]methyl}pyrrolidine-2-carboxamide]?
**A.** Dmax: 51 to 70%; DC50 (VCaP cells (Table 32)): < 50 nM

**Q.** For `Cc1ncoc1-c1ccc(CNC(=O)[C@@H]2C[C@@H](O)CN2C(=O)[C@@H](NC(=O)COCCCCOc2ccc(-c3ccc(N4C(=S)N(c5ccc(C#N)c(Cl)c5)C(=O)C4(C)C)c(F)c3)cc2)C(C)(C)C)cc1` [Example 100, (2S,4R)-1-[(2S)-2-{2-[4-(4-{4-[3-(3-chloro-4-cyanophenyl)-5,5-dimethyl-4-oxo-2-sulfanylideneimidazolidin-1-yl]-3-fluorophenyl}phen-oxy)butoxy]acetamido}-3,3-dimethylbutanoyl]-4-hydroxy-N-{[4-(4-methyl-1,3-oxazol-5-yl)phenyl]methyl}pyrrolidine-2-carboxamide], which Dmax is on record?
**A.** The Dmax was over 71%.

**Q.** And the DC50 (VCaP cells (Table 32))?
**A.** Its DC50 is under 50 nM.

**Q.** How did the Dmax turn out when `Cc1ncoc1-c1ccc([C@H](C)NC(=O)[C@@H]2C[C@@H](O)CN2C(=O)[C@@H](NC(=O)COCCCCOc2ccc(-c3ccc(N4C(=S)N(c5ccc(C#N)c(C(F)(F)F)c5)C(=O)C4(C)C)cc3)cc2)C(C)(C)C)cc1` [Example 101, (2S,4R)-1-[(2S)-2-(2-{4-[4-(4-{3-[4-cyano-3-(trifluoromethyl)phenyl]-5,5-dimethyl-4-oxo-2-sulfanylideneimidazolidin-1-yl}phenyl)phenoxy]butoxy}acetamido)-3,3-dimethylbutanoyl]-4-hydroxy-N-[(1S)-1-[4-(4-methyl-1,3-oxazol-5-l)phenyl]ethyl]pyrrolidine-2-carboxamide] was run?
**A.** The Dmax was over 71%.

**Q.** What about the DC50 (VCaP cells (Table 32)) of the same compound?
**A.** The DC50 was under 50 nM.

**Q.** For `Cc1ncsc1-c1ccc(CNC(=O)[C@@H]2C[C@@H](O)CN2C(=O)[C@@H](NC(=O)COCCCCOc2ccc(-c3ccc(N4C(=S)N(c5ccc(C#N)c(C(F)(F)F)c5)C(=O)C4(C)C)cn3)cc2)C(C)(C)C)cc1` [Example 102, (2S,4R)-1-[(2S)-2-(2-{4-[4-(5-{3-[4-cyano-3-(trifluoromethyl)phenyl]-5,5-dimethyl-4-oxo-2-sulfanylideneimidazolidin-1-yl}pyridin-2-yl)phenoxy]butoxy}acetamido)-3,3-dimethylbutanoyl]-4-hydroxy-N-{[4-(4-methyl-1,3-thiazol-5-yl)phenyl]methyl}pyrrolidine-2-carboxamide], which Dmax is on record?
**A.** Its Dmax is over 71%.

**Q.** What about the DC50 (VCaP cells (Table 32)) of the same compound?
**A.** The DC50 was under 50 nM.

**Q.** Which Dmax does the source give for `Cc1ncsc1-c1ccc(CNC(=O)[C@@H]2C[C@@H](O)CN2C(=O)[C@@H](NC(=O)COCCCCNc2ccc(-c3ccc(N4C(=S)N(c5ccc(C#N)c(C(F)(F)F)c5)C(=O)C4(C)C)cc3)cc2)C(C)(C)C)cc1` [Example 103, (2S,4R)-1-[(2S)-2-[2-(4-{[4-(4-{3-[4-cyano-3-(trifluoromethyl)phenyl]-5,5-dimethyl-4-oxo-2-sulfanylideneimidazolidin-1-yl}phenyl)phen-yl]amino}butoxy)acetamido]-3,3-dimethylbutanoyl]-4-hydroxy-N-{[4-(4-methyl-1,3-thiazol-5-yl)phenyl]methyl}pyrrolidine-2-carboxamide] here?
**A.** Its Dmax is over 71%.

**Q.** And the DC50 (VCaP cells (Table 32))?
**A.** The DC50 was under 50 nM.
